Test results reported in a melting point compilation (Tetko et al.).

melting point	SMILES
278 °C	N#Cc1ccc(C(Cl)C(Cl)c2ccc(C(Cl)C(Cl)c3ccc(C#N)cc3[N+](=O)[O-])cc2)c([N+](=O)[O-])c1 (stereo unspecified)
257 °C	Cc1ccc(Cl)c(Nc2ccccc2C(=O)O)c1Cl
206 °C	COc1ccc(C(=O)N(NC(=O)c2ccccc2)C(C)(C)C)cc1OC
58.5 °C	O=S(=O)(Nc1cc(F)c(F)cc1F)C(F)(F)F
49 °C	CC(=O)Oc1ccccc1C(=O)Cl
110 °C	CCOC(=O)CNc1nc(Cl)nc(NC(C)C)n1
83.5 °C	ONc1ccccc1
127 to 131 °C	COc1ccc(CCN2CC(C(=O)O)CC2=O)cc1OC (stereo unspecified)
-100 °C	C=COCC(CC)CCCC (stereo unspecified)
148 to 150 °C	CC1(C)CC(CN2C(=O)C=CC2=O)C(C)(C)N1O (stereo unspecified)
170 °C	COc1cc(O)c(C(=O)c2ccccc2)cc1S(=O)(=O)O
179 °C	CC(C=CC=C(C)C=CC1=C(C)CCCC1(C)C)=CC=CC=C(C)C=CC=C(C)C=CC1=C(C)C(=O)CCC1(C)C
146 °C	CCOC(=O)/C(=N\Nc1cc(Cl)ccc1Cl)C(=O)C(F)(F)F
160 °C	CC(=O)N1C(C(=O)O)Cc2c([nH]c3ccccc23)C1(C)C (stereo unspecified)
207 to 208 °C	CCOC(=O)C(C(C)=O)C(=O)/C=C/c1ccc(OC)c(OCc2ccccc2)c1 (stereo unspecified)
86 °C	NCCc1c[nH]cn1
150 to 152 °C	CC1(C)O[C@@H]2[C@H](O1)[C@@H]1C[C@H]2NC1=O
204 to 205 °C	Oc1ccc(CCc2nnc(S)n2-c2ccc(F)cc2)cc1
232 °C	CCCCc1ccc(N=Cc2ccc(C=Nc3ccc(CCCC)cc3)cc2)cc1
212 to 213 °C	O=C(O)c1ccc(C#Cc2ccccc2)o1

melting point	SMILES
91 °C	CC(=O)OCCOc1cc(OCCOC(C)=O)c([N+](=O)[O-])cc1[N+](=O)[O-]
233 to 235 °C	Cc1cc(C(F)(F)F)c(C#N)c(=O)[nH]1
227 °C	Oc1ccc2ccncc2c1
60 to 65 °C	COC1=CC(=O)OC1
169 °C	COc1ccc(C(=O)Oc2ccc(C(=O)/C=C/c3ccc4c(c3)OCO4)cc2)cc1
160 °C	O=C(c1noc(-c2ccc([N+](=O)[O-])cc2)c1S(=O)(=O)c1ccccc1)c1cccc2ccccc12
138 °C	CCc1ccc(NC(N)=S)cc1
210 to 213 °C	O=[N+]([O-])c1cc2nccnc2cc1Cl
193 to 195 °C	COC(=O)c1sc(SC)c(S(=O)(=O)C(C)C)c1I
178 °C	O=C1COc2ccc(S(=O)(=O)Cl)cc2N1
-25 °C	CC(C)C(C)(C)C
192 to 193 °C	O=C1OC(c2ccccc2)=NC1=Cc1ccc(Br)cc1
200 to 202 °C	NN1C(=O)c2ccccc2C1=O
159 °C	Oc1cc(C(F)(F)F)ccn1
225 °C	Cc1c(Cl)c(Cl)c(Cl)c(Cl)c1Cl
135 to 136 °C	CC(=O)OC1CCC2(C)C(CCC3C4=C(CCC32)C(C)(C#Cc2ccccc2)CC4)C1 (stereo unspecified)
121 to 123 °C	Cc1ccc(-c2nnc(CCl)o2)cc1
98 °C	Cc1ccccc1NC(=O)c1cncc(Cl)n1
81 to 84 °C	O=C(O)CSC=Cc1ccccc1

SMILES	melting point
O=[N+]([O-])c1ccc(NCc2ccccc2)c2nonc12	206 to 209 °C
O=[N+]([O-])c1ccc(N2CCNCC2)c(Cl)c1	105 to 106 °C
Nc1nc(N)nc(Cl)n1	320 °C
O=C1NC(=O)C(=NNc2ccccc2[N+](=O)[O-])C(=O)N1	290 °C
CNC(=O)c1cc(C)cc(Cl)c1NC(=O)c1cc(Br)nn1-c1ncccc1Cl	209 °C
CCC(=O)OC1CCC2C3CCC4=CC(=O)CCC4(C)C3CCC12C (stereo unspecified)	120 °C
CCOP(=S)(OCC)Oc1cnccn1	-1.7 °C
